Experimental data from patent publication US6608027B1, “Macrocyclic peptides active against the hepatitis C virus” (Boehringer Ingelheim (Canada) Ltd, priority 1999, dated 2003).

Target: HCV NS3 protease type 1b (Hepatitis C virus genotype 1b, UniProt P26663)
Assay: Recombinant HCV NS3 protease radiometric assay
Format: biochemical
Settings: not given
Procedure: The substrate used for the HCV NS3 protease radiometric assay, DDIVPC-SMSYTW (SEQ. ID NO.: 2), is cleaved between the cysteine and the serine residues by the enzyme. The sequence DDIVPC-SMSYTW (SEQ. ID NO.: 2) corresponds to the NS5A/NS5B natural cleavage site in which the cysteine residue in P2 has been substituted for a proline. The peptide substrate DDIVPC-SMSYTW (SEQ. ID NO.: 2) and the tracer biotin-DDIVPC-SMS[^125I-Y]TW (SEQ. ID NO.: 3) were incubated with the recombinant NS3 protease in the absence or in the presence of inhibitors. The separation of substrate from products was performed by adding avidin-coated agarose beads to the assay mixture followed by filtration. The amount of SMS[^125I-Y]TW (SEQ. ID NO.: 4) product found in the filtrate (with or without inhibitor) allowed for the calculation of the percentage of substrate conversion and of the percentage of inhibition.
Assay buffer: 50 mM Tris-HCl, pH 7.5, 30% (w/v) glycerol, 2% (w/ v) CHAPS, 1 mg/mL BSA, 1 mM TCEP (TCEP added just prior to use from a 1 M stock solution in water).
Substrate: DDIVPC-SMSYTW (SEQ. ID NO.: 2), 25 μM final concentration (from a 2 mM stock solution in DMSO stored at −20° C. to avoid oxidation).
Tracer: reduced mono-iodinated substrate(biotin-DDIVPC-SMS[^125I-Y]TW (SEQ. ID NO.: 3)) (≈1 nM final concentration).
HCV NS3 protease type 1b, 25 nM final concentration (from a stock solution in 50 mM sodium phosphate, pH 7.5, 10% glycerol, 300 mM NaCl, 5 mM DTT, 0.01% NP-40).
The assay was performed in a 96-well polypropylene plate. Each well contained:
20 μL substrate/tracer in assay buffer;
10 μL±inhibitor in 20% DMSO/assay buffer;
Blank (no inhibitor and no enzyme) and control (no inhibitor) were also prepared on the same assay plate.
The enzymatic reaction was initiated by the addition of the enzyme solution and the assay mixture was incubated for 60 min at 23° C. under gentle agitation. Twenty (20) μL of 0.025 N NaOH were added to quench the enzymatic reaction.
Twenty (20) μL of avidin-coated agarose beads (purchased from Pierce®) were added in a Millipore® MADP N65 filtration plate. The quenched assay mixture was transferred to the filtration plate, and incubated for 60 min at 23° C. under gentle agitation.
The plates were filtered using a Millipore® MultiScreen Vacuum Manifold Filtration apparatus, and 40 μL of the filtrate was transferred to an opaque 96-well plate containing 60 μL of scintillation fluid per well.
The filtrates were counted on a Packard® TopCount instrument using a ^125I-liquid protocol for 1 minute. The %inhibition was calculated with the following equation:
100−[(countsinh−countsblank)/(countsctl−countsblank)×100] […]

Chain of HCV NS3 protease type 1b (P26663 1027-1208): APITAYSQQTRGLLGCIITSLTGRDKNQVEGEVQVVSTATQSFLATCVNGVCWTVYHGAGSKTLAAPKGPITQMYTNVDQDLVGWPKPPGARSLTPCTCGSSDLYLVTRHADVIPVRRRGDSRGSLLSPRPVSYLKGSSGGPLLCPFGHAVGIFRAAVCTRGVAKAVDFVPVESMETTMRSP

| SMILES | IC50 |
| --- | --- |
| COc1ccc2c(O[C@@H]3C[C@H]4C(=O)N[C@@]5(C(=O)O)C[C@@H]5/C=C\CCCCC[C@H](NC(=O)OC(C)(C)C)C(=O)N4C3)cc(-c3ccccc3)nc2c1 [Compound 210] | > 1000 nM |

Same assay, conditions: asterisk (*) = radiometric assay of Example 49; read-out: enzyme activity (IC50 grade), asterisk

| SMILES | IC50 |
| --- | --- |
| COc1ccc2c(O[C@@H]3C[C@H]4C(=O)N[C@]5(C(=O)O)C[C@@H]5CCCCC[C@H](NC(=O)OC(C)(C)C)C(=O)N4C3)cc(-c3ccccc3)nc2c1 [Compound 306] | > 1000 nM |
| COc1ccc2c(O[C@@H]3C[C@H]4C(=O)N[C@]5(C(=O)O)C[C@H]5CC/C=C\CS[C@@H](C)[C@H](NC(=O)OC(C)(C)C)C(=O)N4C3)cc(-c3ccccc3)nc2c1 [Compound 411] | > 1000 nM |
| COc1ccc2c(O[C@@H]3C[C@H]4C(=O)N[C@]5(C(=O)O)C[C@H]5CCN(C)CCCC[C@H](NC(=O)OC(C)(C)C)C(=O)N4C3)cc(-c3ccccc3)nc2c1 [Cpd 504] | > 1000 nM |

Target: T1, His-NS3-NS4AFL (full-length NS3-NS4A protein complex) (Hepatitis C virus genotype 1b, UniProt P26663)
T1 construct: made in house; host or cells: Sf21 insect cells, recombinant baculovirus (Bac-to-Bac, pFastBac HTa)
T1 sequence (P26663 1658-1711): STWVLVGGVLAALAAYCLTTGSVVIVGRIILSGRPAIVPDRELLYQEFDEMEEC
T1 sequence (P26663 1027-1657): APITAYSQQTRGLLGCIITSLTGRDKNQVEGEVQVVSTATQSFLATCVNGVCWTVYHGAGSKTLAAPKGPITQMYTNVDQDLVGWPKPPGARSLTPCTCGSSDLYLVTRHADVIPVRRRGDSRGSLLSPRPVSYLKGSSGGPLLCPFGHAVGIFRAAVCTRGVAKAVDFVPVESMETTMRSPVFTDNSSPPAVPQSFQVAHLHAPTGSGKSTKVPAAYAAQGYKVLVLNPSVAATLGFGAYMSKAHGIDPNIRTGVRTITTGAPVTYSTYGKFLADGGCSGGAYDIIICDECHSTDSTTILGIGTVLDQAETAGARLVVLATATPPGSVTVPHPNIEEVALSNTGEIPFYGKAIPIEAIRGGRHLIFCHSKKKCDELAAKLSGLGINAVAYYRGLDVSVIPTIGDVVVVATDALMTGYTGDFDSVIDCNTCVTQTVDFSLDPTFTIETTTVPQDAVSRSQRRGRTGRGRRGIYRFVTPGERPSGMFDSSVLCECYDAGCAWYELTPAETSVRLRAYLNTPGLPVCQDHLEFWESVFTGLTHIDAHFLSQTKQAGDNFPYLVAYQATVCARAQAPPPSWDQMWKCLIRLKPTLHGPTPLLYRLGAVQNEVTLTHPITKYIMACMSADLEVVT
Assay: Full-length NS3-NS4A heterodimer protein fluorogenic assay
Format: biochemical, HCV genotype 1b
Settings: fluorogenic assay of Example 48; no asterisk; read-out: enzyme activity (IC50 grade)
Excerpt: The NS2-NS5B-3′non coding region was cloned by RT-PCR into the pCR®3 vector (Invitrogen) using RNA extracted from the serum of an HCV genotype 1b infected individual (provided by Dr. Bernard Willems, Hôpital St-Luc, Montréal, Québec, Canada). The NS3-NS4A region (NS3-NS4AFL) was then subcloned by PCR into the pFastBac™ HTa baculovirus expression vector (Gibco/BRL). The vector sequence includes a region encoding a 28-residue N-terminal sequence which contains a hexahistidine tag. The Bac-to-Bac™ baculovirus expression system (Gibco/BRL) was used to produce the recombinant baculovirus. His-NS3-NS4AFL was expressed by infecting 10^6 Sf21 cells/mL with the recombinant baculovirus at a multiplicity of infection of 0.1-0.2 at 27°. Authentic auto-proteolysis occurs during expression to produce a non covalent and stable NS3-NS4A protein complex (referred to as full-length “FL”). The infected culture was harvested 48 to 64 h later by centrifugation at 4°. The cell pellet was homogenized in 50 mM NaPO4, pH 7.5, 40% glycerol (w/v), 2 mM β-mercaptoethanol, in presence of a cocktail of protease inhibitors. His-NS3-NS4AFL was then extracted from the cell lysate with 1.5% NP-40, 0.5% Triton X-100, 0.5M NaCl, and a DNase treatment. After ultracentrifugation, the soluble extract was diluted 4-fold and bound on a Pharmacia Hi-Trap Ni-chelating column. The His-NS3-NS4AFL was eluted in a >90% pure form (as judged by SDS-PAGE), using a 50 to 400 mM imidazole gradient. The His-NS3-NS4AFL was stored at −80° in 50 mM sodium phosphate, pH 7.5, 10% (w/v) glycerol, 0.5 M NaCl, 0.25 M imidazole, 0.1% NP-40. It was thawed on ice and diluted just prior to use.
The protease activity of His-NS3-NS4AFL was assayed in 50 mM Tris-HCl, pH 8.0, 0.25 M sodium citrate, 0.01% (w/v) n-dodecyl-β-D-maltoside, 1 mM TCEP. Five (5) μM of the internally quenched substrate anthranilyl-DDIVPAbu[C(O)—O]-AMY(3-NO2)TW-OH (SEQ. ID NO.: 1) in presence of various concentrations of inhibitor were incubated with 1.5 nM of His-NS3-NS4AFL for 45 min at 23°. […] The reaction was terminated with the addition of 1M MES, pH 5.8. Fluorescence of the N-terminal product was monitored on a Perkin-Elmer LS-50B fluorometer equipped with a 96-well plate reader (excitation wavelength: 325 nm, emission wavelength: 423 nm).
The % inhibition was calculated with the following equation:
100−[(fluoinh−fluoblank)/(fluoctl−fluoblank)×100]
A non-linear curve fit with the Hill model was applied to the inhibition-concentration data, and the 50% effective concentration (IC50) was calculated by the use of SAS software (Statistical Software System; SAS Institute, Inc. Cary, N.C.).

| SMILES | IC50 |
| --- | --- |
| COc1ccc2c(O[C@@H]3C[C@H]4C(=O)N[C@]5(C(=O)O)C[C@H]5C=CCCCC=CC[C@H](NC(=O)OC(C)(C)C)C(=O)N4C3)cc(-c3ccccc3)nc2c1 [Compound 304] | < 100 nM |
| COc1ccc2c(O[C@@H]3C[C@H]4C(=O)N[C@]5(C(=O)O)C[C@H]5/C=C\COCCC[C@H](O)C(=O)N4C3)cc(-c3ccccc3)nc2c1 [Compound 305] | 100 to 1000 nM |
| COc1ccc2c(O[C@@H]3C[C@H]4C(=O)N[C@]5(C(=O)O)C[C@H]5/C=C\CCCCCC[C@H](NC(=O)OC(C)(C)C)C(=O)N4C3)cc(-c3csc(NC(C)=O)n3)nc2c1 [Compound 307] | < 100 nM |
| CCOc1cc(O[C@@H]2C[C@H]3C(=O)N[C@]4(C(=O)O)C[C@H]4/C=C\CCCCC[C@H](NC(C)=O)C(=O)N3C2)c2ccc(OC)cc2n1 [Compound 308] | < 100 nM |
| COc1ccc2c(O[C@@H]3C[C@H]4C(=O)N[C@]5(C(=O)O)C[C@H]5CC/C=C/CCC[C@H](NC(=O)OC(C)(C)C)C(=O)N4C3)cc(-c3ccccc3)nc2c1 [Compound 401] | < 100 nM |
| COc1ccc2c(OC3CC4C(=O)NC5(C(=O)O)CC5CCC=CCCCC(NC(=O)OC(C)(C)C)C(=O)N4C3)cc(-c3ccccc3)nc2c1 (stereo not drawn) [Compound 402] | 100 to 1000 nM |
| COc1ccc2c(OC3CC4C(=O)NC5(C(=O)O)CC5CCC=CCOCC(NC(=O)OC(C)(C)C)C(=O)N4C3)cc(-c3ccccc3)nc2c1 (stereo not drawn) [Compound 403] | < 100 nM |
| COc1ccc2c(O[C@@H]3C[C@H]4C(=O)N[C@]5(C(=O)O)CC5CC/C=C/CO[C@H](C)[C@H](NC(=O)OC(C)(C)C)C(=O)N4C3)cc(-c3ccccc3)nc2c1 (stereo partly drawn) [Compound 404] | 100 to 1000 nM |
| COc1ccc2c(O[C@@H]3C[C@H]4C(=O)N[C@]5(C(=O)O)CC5CCCCCO[C@H](C)[C@H](NC(=O)OC(C)(C)C)C(=O)N4C3)cc(-c3ccccc3)nc2c1 (stereo partly drawn) [Compound 407] | 100 to 1000 nM |
| COc1ccc2c(O[C@@H]3C[C@H]4C(=O)N[C@]5(C(=O)O)C[C@H]5CC/C=C/CS[C@@H](C)[C@H](NC(=O)OC(C)(C)C)C(=O)N4C3)cc(-c3ccccc3)nc2c1 [Compound 410] | < 100 nM |
| COc1ccc2c(OC3CC4C(=O)NC5(C(=O)O)CC5CCC=CCSC(C)(C)C(NC(=O)OC(C)(C)C)C(=O)N4C3)cc(-c3ccccc3)nc2c1 (stereo not drawn) [Compound 412] | > 1000 nM |
| COc1ccc2c(O[C@@H]3C[C@H]4C(=O)N[C@]5(C(=O)O)CC5CCCCN(C(C)=O)CC[C@H](NC(=O)OC(C)(C)C)C(=O)N4C3)cc(-c3ccccc3)nc2c1 (stereo partly drawn) [Compound 508] | < 100 nM |
| CC(=O)Nc1nc(-c2cc(O[C@@H]3C[C@H]4C(=O)N[C@]5(C(=O)O)C[C@H]5/C=C\CCCCC[C@H](NC(=O)OC(C)(C)C)C(=O)N4C3)c3ccc(N(C)C)cc3n2)cs1 [Compound 601] | < 100 nM |
| CC(C)(C)OC(=O)N[C@H]1CCCCC/C=C\[C@@H]2C[C@@]2(C(=O)O)NC(=O)[C@@H]2C[C@@H](Oc3cc(C(F)(F)F)nc4cc(O)ccc34)CN2C1=O [Compound 602] | < 100 nM |
| COc1ccc2c(O[C@@H]3C[C@H]4C(=O)N[C@]5(C(=O)O)C[C@H]5/C=C\CCCCC[C@H](NC(=O)OC(C)(C)C)C(=O)N4C3)cc(-c3cnco3)nc2c1 [Compound 603] | < 100 nM |

Tested on: not given
Assay: not given
Settings: from C=CCCCCC[C@H](NC(=O)OC(C)(C)C)C(=O)N1C[C@@H](O)C[C@H]1C(=O)N[C@]1(C(=O)OC)CC1C=C; rcm bond; Hoveyda's catalyst; CH2Cl2; 9.85 mM; 40.0 °C; 28.0 h

| SMILES | ring closure, yield of all isomers |
| --- | --- |
| COC(=O)[C@@]12CC1C=CCCCCC[C@H](NC(=O)OC(C)(C)C)C(=O)N1C[C@@H](O)C[C@H]1C(=O)N2 (stereo partly drawn) | 89% |

Same assay, conditions: from COC(=O)[C@@]1(NC(=O)[C@@H]2C[C@@H](Oc3cc(-c4ccccc4)nc4cc(OC)ccc34)CN2C(=O)[C@H](CCNC(=O)OCc2ccccc2)NC(=O)OC(C)(C)C)C[C@H]1CCCC=O; amine bond; H2, Pd(OH)2, AcOH; ethanol; 44.0 mM; 25.0 °C; 40.0 h; 2 steps

| SMILES | ring closure, yield of all isomers |
| --- | --- |
| COC(=O)[C@@]12C[C@H]1CCCCNCC[C@H](NC(=O)OC(C)(C)C)C(=O)N1C[C@H](Oc3cc(-c4ccccc4)nc4cc(OC)ccc34)C[C@H]1C(=O)N2 | 30% |
